For assay [1], the system named is cells carrying p53 mutations. As to the kind of experiment: NCI60 screen Score ranking, p53 mutant case group vs p53 wild-type control group. The conditions noted are these: p53 273/248 mutant case group vs p53 wild-type control group; NCI60 data. On the procedure: The Score calculations are carried out by: • (1) calculating a Responsive Fraction, i.e., the fraction of the case cell lines in the Case Group that are responsive to the test treatment; • (2) calculating a Non-Responsive Fraction i.e., the fraction of the control cell lines in the Control Group that are not responsive to the test treatment; and • (3) generating a Score of the test treatment according to Formula I:
Score=the Responsive Fraction×the Non-Responsive Fraction.
Among the NCI60 cell lines, 16 have wild-type p53 and 44 carry a p53 alteration (Ikediobi, O. N., et al., Mol Cancer Ther, 2006. 5(11): p. 2606-12). Mutations at amino acids 273 and 248 are the most frequent, with 5 and 4 cell lines, respectively. Given the abundance of p53 mutations at positions 273 and 248 within the NCI60 cell lines, and their location in the p53-DNA contact, cells carrying these mutations were chosen to form a case group to identify compounds with increased activity in tumors with a mutant p53. On the other hand, cells with a wild-type p53 were chosen to form a control group. The resulting groups are the following:
• Leukemia: CCRF-CEM; • Lung Cancer: NCI-H322M; • Central Nervous System Cancer: SF-295, SF-268, SNB-19, and U251; • Colorectal Cancer: HT29 and SW-620; • Ovarian Cancer: OVCAR-3.
• Breast Cancer: MCF7; • Colorectal Cancer: HCT-116; • Lung Cancer: A549, NCI-H226, and NCI-H460; • Leukemia: SR; • Melanoma: LOXIMVI, MALME-3M, SK-MEL-5, UACC-257, and UACC-62; • Ovarian Cancer: OVCAR-5; • Renal Cancer: A498, ACHN, CAKI-1, and UO-31.
Using the protocols described above, the NCI60 treatment-cell line RG was constructed, taking RS=log10IC50-average(log10IC50) as a relative response sensitivity measurement and computing the average(log10IC50) over all the 60 cell lines. The Case and Control groups listed above were chosen, and the score in Formula I was computed for the 47,624 compounds in the NCI60 screen.

The test system of assay [2] is p53 wild type cell lines (H460, HCT116, MCF7 and WI38). As to the kind of experiment: Sensitivity of human tumor cell line system. It counts as cell-based. The conditions noted are these: 0.1 μM to 10 μM.
The target in assay [3] is T1, p53 R175H (Homo sapiens, UniProt P04637, R175H).
T1 construct: one ovarian carcinoma cell line containing a p53^R175H (TOV112D); endogenous in cells; host or cells: TOV112D human ovarian carcinoma cells
As to the kind of experiment: Immunoprecipitation of TOV112D lysates with mutant specific antibody PAB240. In kind it is cell-based. The note with it: detection with DO-1. An excerpt:
This conformational change was confirmed by immunoprecipitation of lysates from NSC319726-treated TOV112D cells using the mutant specific antibody PAB240. To that end, cell lysates were precipitated with PAB240 and detected with p53 (DO-1) antibody which recognizes all types of p53 protein conformations.

Assay [4] relates to p53 response element (p53RE) in the p21 promoter, MEF cells with exogenous 248 or 273 mutations. As to the kind of experiment: Luciferase reporter assay, p53RE of the p21 promoter. In kind it is cell-based, mouse. The conditions noted are these: MEF cell lines expressing the 248 and 273 alleles. On the procedure: To that end, luciferase activity assays were performed. Briefly, a 20-bp p53 response element (p53RE) was subcloned in the pGL3 vector to generate a luciferase reporter plasmid, which contained 20 base pairs of the p53 response element in the p21 promoter. The sequences of the 5′ site and 3′ site at −2.27 kb and −1.38 kb (SEQ ID NOs: 1 and 3) and their reverse complements (SEQ ID NOs: 2 and 4) are listed below:
The reporter plasmid was transfected to the TOV112D cells or MEF cells with exogenous 248 or 273 mutations. Cells thus-transfected were treated with NSC319726 and subjected to luciferase assays. […] This effect was not seen in MEF cell lines expressing the 248 and 273 alleles, FIG. 10b.
On the technique in general: Reporter assays use an easily measured gene product as a stand-in for the process of interest.

The test system of assay [5] is panel of p53 targets. The experiment in a line: Microarray analysis of p53 target genes in TOV112D cells. In kind it is cell-based, human. The conditions noted are these: TOV112D vs untreated controls. An excerpt:
(§1) Each treatment had three independent repeats (labeled as 1, 2, and 3); (e) Comparison of the p53 expression signatures of 319726 treated cells with that of p53 wild type, p53 null and p53R175H cell lines in response to gamma-irradiation.
To examine the transcriptional activity of the NSC319725 and […]-treated cells on a larger scale, microarrays were used to analyze control- and compound-treated TOV112D cells.

The test system of assay [6] is p53^R172H/R172H mice tissues. The experiment in a line: Cleaved Caspase-3 immuno-staining and quantitative-PCR of p53 targets in mouse tissues. It counts as in vivo.
Assay [7] relates to TOV112D cells. As to the kind of experiment: Growth inhibition after silencing of p53 by siRNA. It counts as cell-based, human. The note with it: p53^R175H silenced by siRNA. An excerpt: (§2) In contrast, the sensitivity of the p53 null cell line (SKOV3) was not reduced by the siRNA in a similar fashion.
Assay [8] deals with p53 null cell line (SKOV3). As to the kind of experiment: Growth inhibition after silencing of p53 by siRNA. In kind it is cell-based, human.
Text: as §2

The subject of assay [9] is p53 targets (p21, PUMA, and MDM2). The experiment in a line: Quantitative real-time PCR of p53 targets. In kind it is cell-based, human. The note with it: TOV112D cells, treated vs untreated, normalized with actin. How it is done:
as §1
Assays were carried out to compare the mRNA levels of several p53 targets (p21, PUMA, and MDM2) in the TOV112D (p53R175H), OVCAR3 (p53R248W) and SKOV3 (p53 null) upon treatment with the compounds. The relative gene expression level was normalized with the actin and the ratio of the treated level vs. untreated level was shown for each cell line.

Assay [10] concerns H460-p53 wildtype, MDAMB468-p53^R273H, HCT116-p53 null and TOV112D-p53^R175H xenograft tumors. As to the kind of experiment: Mouse xenograft tumor growth. The note with it: 1 μg/g intravenously once daily vs control. In kind it is in vivo.
The test system of assay [11] is MEF cells with exogenous p53 mutations. As to the kind of experiment: Apoptosis by Annexin V staining in MEF cells. In kind it is cell-based, mouse. An excerpt:
(§3) Briefly, apoptosis was examined by Annexin V staining using standard methods.

Assay [12] relates to TOV112D-p53R175H, OVCAR3-p53 R248W and SKOV3-p53 null. The experiment in a line: Apoptosis by Annexin V staining in ovarian carcinoma cell lines. It counts as cell-based, human. The conditions noted are these: three ovarian carcinoma cell lines.
Text: as §3

We go through 1 compound from patent publication US20130345164A1, “TREATMENTS FOR CELLULAR PROLIFERATIVE DISORDERS AND IDENTIFICATION THEREOF” (UNIVERSITY OF MEDICINE AND DENTISTRY OF NEW JERSEY, priority 2010, published 2013).

For the compound `C/C(=N\NC(=S)N1CCC1)c1ccccn1` [NSC319726], in [1], the “Score (Formula I)” value was 0.52. For the same compound, in assay [2], the sensitivity result is given as “relative lack of sensitivity”. Also, in assay [3], the “amount of p53 R175H immunoprecipitated by mutant specific antibody PAB240” value is “greatly reduced”. The “increase in luciferase activity” value in [4] was “not seen”. In addition, the “transcriptional levels of panel of p53 targets (microarray)” value in assay [5] is “induced a large proportion of these genes”. The “cleaved Caspase-3 immuno-stained cells in spleen and thymus” value in assay [6] (p53^R172H/R172H mice vs wild type controls, 24 hours treatment) is listed as “abundantly more cleaved Caspase-3 immuno-stained cells”. For the same compound, the “mRNA levels of p53 targets in tissues” value in assay [6] (p53^R172H/R172H mice vs wild type, lung, spleen, thymus, small intestine, 24 hours) is “Elevated mRNA levels”. Also, the “change of sensitivity on p53 siRNA” value in [7] is “reduced by four-fold”; in assay [8] it was “not reduced”. In assay [9], the “induction of mRNA of p53 targets p21, PUMA, MDM2” value was “induced all three targets”. Moreover, the “xenograft tumor growth inhibition” value in assay [10] is recorded as “inhibited mouse xenograft tumor growth in an allele specific mutant p53 dependent manner”. The “apoptosis response of (10)3/175” value in assay [11] ((10)3/175 compared with other MEF lines) is listed as “strongest apoptosis response”. In addition, the “induction of apoptosis (Annexin V staining)” value in assay [11] (MEF cells with exogenous p53 mutations) is “induced apoptosis”; in assay [12], “induction of apoptosis in all three”.
